For experiment [1], the target named is T1, EGFR^T790M/L858R (Homo sapiens, UniProt P00533, L858R/T790M).
T1 construct: purchased Millipore
Put plainly: kinase inhibitory activity test (ELISA), EGFR^T790M/L858R. Format: biochemical. The settings on record: for IC50: ELISA, ATP 5 μM, 1 hour at 37° C. As for the experimental part:
(§1) The enzyme substrate poly (glutamic acid, tyrosine)4:1 (Sigma) was diluted with potassium-free PBS (10 mM sodium phosphate buffer, 150 mM NaCl, pH 7.2-7.4) to 20 μg/mL, plate coated with 125 μL/well, reacted for 12-16 hours at 37° C. After the liquid in the wells was discarded, the plates were washed three times with 200 μL/well of T-PBS (PBS containing 0.1% Tween-20), and each time for 5 minutes, and then dried for 1-2 hours in an oven at 37° C. 50 μL of ATP solution diluted with reaction buffer (50 mM HEPES pH 7.4, 50 mM MgCl2, 5 mM MnCl2, 0.2 mM Na3VO4, 1 mM DTT) was added into each well and the final concentration was 5 μM. The compounds were diluted with 1% DMSO to suitable concentrations and were added at 10 μL/well. […] The above reaction system was reacted for 1 hour at 37° C. shaking table (100 rpm). Control wells with no enzyme and control wells with DMSO solvent were set in each experiment. After the reaction was completed, the plates were washed three times with T-PBS. The anti-phosphotyrosine primary antibody PY99 (Santa Cruz) was added at 100 μL/well and the antibody was diluted with T-PBS containing BSA 5 mg/mL by 1:1000. The mixture was reacted for 0.5 h at 37° C. shaking table, the plates were washed three times with T-PBS. The secondary antibody which was horseradish peroxidase-labeled goat anti-mouse IgG was added at 100 μL/well (the antibody was diluted with T-PBS containing BSA 5 mg/mL by 1:2000). The mixture was reacted for 0.5 h at 37° C. shaking table, the plates were washed three times with T-PBS. 2 l/mL of OPD coloring solution was added at 100 μL/well (diluted with 0.1 M citric acid-sodium citrate buffer (pH=5.4) containing 0.03% H2O2) and dark reacted for 1 to 10 minutes at 25° C. 2 M H2SO4 was added at 50 μL/well to terminate the reaction. Reading was carried out with an adjustable wavelength microplate enzyme-labeled instrument SPECTRA MAX 190 at 490 nm wavelength.
(§2) The IC50 value was calculated by the four-parameter fitting of the suppression curve.

Experiment [2] concerns the target T2, EGFR^wt (Homo sapiens, UniProt P00533).
T2 construct: purchased Millipore
Put plainly: kinase inhibitory activity test (ELISA), EGFR^WT. The settings on record: ATP 5 μM, 1 hour at 37° C. Type of experiment: biochemical. How it is done:
as §1, §2

Experiment [3] deals with T3, IGF-1R (Homo sapiens, UniProt P08069).
T3 construct: purchased Millipore
T3 sequence (P08069 31-1367): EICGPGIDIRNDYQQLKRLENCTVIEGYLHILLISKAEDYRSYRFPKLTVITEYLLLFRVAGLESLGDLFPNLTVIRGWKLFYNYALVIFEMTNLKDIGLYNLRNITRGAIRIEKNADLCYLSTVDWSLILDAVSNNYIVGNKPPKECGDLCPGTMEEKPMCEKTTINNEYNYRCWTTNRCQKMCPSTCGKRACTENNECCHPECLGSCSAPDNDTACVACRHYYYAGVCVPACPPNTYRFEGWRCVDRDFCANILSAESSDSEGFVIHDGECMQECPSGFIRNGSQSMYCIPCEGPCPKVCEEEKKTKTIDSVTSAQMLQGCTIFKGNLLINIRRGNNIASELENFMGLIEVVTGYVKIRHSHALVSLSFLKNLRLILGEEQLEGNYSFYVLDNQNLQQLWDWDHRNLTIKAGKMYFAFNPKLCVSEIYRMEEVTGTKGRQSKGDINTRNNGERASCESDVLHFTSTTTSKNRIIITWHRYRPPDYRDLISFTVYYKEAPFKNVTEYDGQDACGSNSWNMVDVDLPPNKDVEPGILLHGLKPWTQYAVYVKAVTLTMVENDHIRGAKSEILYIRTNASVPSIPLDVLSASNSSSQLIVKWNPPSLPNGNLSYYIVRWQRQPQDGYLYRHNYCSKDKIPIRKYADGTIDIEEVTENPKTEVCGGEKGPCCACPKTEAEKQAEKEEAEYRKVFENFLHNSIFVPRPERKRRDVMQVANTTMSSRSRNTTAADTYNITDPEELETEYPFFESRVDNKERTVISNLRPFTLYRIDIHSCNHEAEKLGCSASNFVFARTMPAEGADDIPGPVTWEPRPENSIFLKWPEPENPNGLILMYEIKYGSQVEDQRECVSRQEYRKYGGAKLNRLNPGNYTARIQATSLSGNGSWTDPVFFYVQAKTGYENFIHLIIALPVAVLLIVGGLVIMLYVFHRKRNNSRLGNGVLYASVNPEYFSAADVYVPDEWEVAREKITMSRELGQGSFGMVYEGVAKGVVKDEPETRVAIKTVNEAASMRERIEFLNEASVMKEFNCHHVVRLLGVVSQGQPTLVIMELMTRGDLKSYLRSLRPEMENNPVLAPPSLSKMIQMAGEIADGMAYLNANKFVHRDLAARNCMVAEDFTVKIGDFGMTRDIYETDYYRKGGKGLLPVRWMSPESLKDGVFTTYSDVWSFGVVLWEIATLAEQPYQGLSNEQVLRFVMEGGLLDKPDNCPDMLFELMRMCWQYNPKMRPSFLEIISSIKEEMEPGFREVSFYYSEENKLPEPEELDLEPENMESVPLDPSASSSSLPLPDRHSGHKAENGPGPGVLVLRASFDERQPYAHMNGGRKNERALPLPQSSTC
Put plainly: kinase inhibitory activity test (ELISA), IGF-1R. Format: biochemical. The conditions noted are these: ATP 5 μM, 1 hour at 37° C. How it is done: The enzyme substrate poly (glutamic acid, tyrosine)4:1 (Sigma) was diluted with potassium-free PBS (10 mM sodium phosphate buffer, 150 mM NaCl, pH 7.2-7.4) to 20 μg/mL, plate coated with 125 μL/well, reacted for 12-16 hours at 37° C. After the liquid in the wells was discarded, the plates were washed three times with 200 μL/well of T-PBS (PBS containing 0.1% Tween-20), and each time for 5 minutes, and then dried for 1-2 hours in an oven at 37° C. 50 μL of ATP solution diluted with reaction buffer (50 mM HEPES pH 7.4, 50 mM MgCl2, 5 mM MnCl2, 0.2 mM Na3VO4, 1 mM DTT) was added into each well and the final concentration was 5 μM. The compounds were diluted with 1% DMSO to suitable concentrations and were added at 10 μL/well. Then different types of tyrosine kinase proteins (including EGFR^wt, EGFR^T790M/L858R and IGF-1R, purchased from Millipore) diluted with 40 μL of reaction buffer were added. The above reaction system was reacted for 1 hour at 37° C. shaking table (100 rpm). Control wells with no enzyme and control wells with DMSO solvent were set in each experiment. After the reaction was completed, the plates were washed three times with T-PBS. The anti-phosphotyrosine primary antibody PY99 (Santa Cruz) was added at 100 μL/well and the antibody was diluted with T-PBS containing BSA 5 mg/mL by 1:1000. The mixture was reacted for 0.5 h at 37° C. shaking table, the plates were washed three times with T-PBS. The secondary antibody which was horseradish peroxidase-labeled goat anti-mouse IgG was added at 100 μL/well (the antibody was diluted with T-PBS containing BSA 5 mg/mL by 1:2000). The mixture was reacted for 0.5 h at 37° C. shaking table, the plates were washed three times with T-PBS. 2 l/mL of OPD coloring solution was added at 100 μL/well (diluted with 0.1 M citric acid-sodium citrate buffer (pH=5.4) containing 0.03% H2O2) and dark reacted for 1 to 10 minutes at 25° C. 2 M H2SO4 was added at 50 μL/well to terminate the reaction. Reading was carried out with an adjustable wavelength microplate enzyme-labeled instrument SPECTRA MAX 190 at 490 nm wavelength.
as §2

Experiment [4] deals with human epidermal carcinoma A431 cell line. Put plainly: SRB proliferation assay, A431 cells. The conditions noted are these: A-431, SRB, 72 h, read-out: IC50 A431. Format: cell-based. As for the experimental part:
(§3) Cell lines: human epidermal carcinoma A431 cell line and human non-small cell lung cancer NCI-H1975 cell line was purchased from the American Standard Biology Collection Center (ATCC).
(§4) Methods: sulforhodamine B (SRB) method, which was as follows: certain number of different tumor cells in logarithmic growth phase were inoculated on 96-well culture plates. After cultured for 24 h to cell adherence, different concentrations of the test compounds of the invention were added. Each concentration was provided with three wells, and a corresponding concentration of DMSO solvent control and a cell-free zeroing well were set. After the cells were treated with the medicine for 72 h, the culture medium was discarded and 100 μL of 10% pre-cooled trichloroacetic acid solution was added to fix the cells. After placed for 1 h at 4° C., it was washed for 5 times with distilled water and dried naturally. Then 100 μL SRB (4 mg/mL) (Sigma) solution was added and stained for 15 min at room temperature. The staining solution was discarded and washed for 5 times with 1% glacial acetic acid and dried. Finally, 150 μL of 10 mM Tris solution (pH 10.5) was added and the OD value was measured at 515 nm with adjustable wavelength microplate enzyme-labeled instrument (VERSAmax™, Molecular Device Corporation, Sunnyvale, Calif., USA).

Experiment [5] concerns human non-small cell lung cancer NCI-H1975 cell line. In words: SRB proliferation assay, NCI-H1975 cells. The settings on record: NCI-H1975, SRB, 72 h, read-out: IC50 NCI-H1975. Format: cell-based. How it is done: as §3
as §4, with “USA). […] Based on the inhibitory effect of the 2-aminopyrimidine compounds on the growth of these cells, the half maximal inhibitory concentration (IC50) values were calculated, as shown in Table 2.” for “USA).”

Where only a bound is given, the exact number is not on record here.

T2 sequence (P00533 25-1210): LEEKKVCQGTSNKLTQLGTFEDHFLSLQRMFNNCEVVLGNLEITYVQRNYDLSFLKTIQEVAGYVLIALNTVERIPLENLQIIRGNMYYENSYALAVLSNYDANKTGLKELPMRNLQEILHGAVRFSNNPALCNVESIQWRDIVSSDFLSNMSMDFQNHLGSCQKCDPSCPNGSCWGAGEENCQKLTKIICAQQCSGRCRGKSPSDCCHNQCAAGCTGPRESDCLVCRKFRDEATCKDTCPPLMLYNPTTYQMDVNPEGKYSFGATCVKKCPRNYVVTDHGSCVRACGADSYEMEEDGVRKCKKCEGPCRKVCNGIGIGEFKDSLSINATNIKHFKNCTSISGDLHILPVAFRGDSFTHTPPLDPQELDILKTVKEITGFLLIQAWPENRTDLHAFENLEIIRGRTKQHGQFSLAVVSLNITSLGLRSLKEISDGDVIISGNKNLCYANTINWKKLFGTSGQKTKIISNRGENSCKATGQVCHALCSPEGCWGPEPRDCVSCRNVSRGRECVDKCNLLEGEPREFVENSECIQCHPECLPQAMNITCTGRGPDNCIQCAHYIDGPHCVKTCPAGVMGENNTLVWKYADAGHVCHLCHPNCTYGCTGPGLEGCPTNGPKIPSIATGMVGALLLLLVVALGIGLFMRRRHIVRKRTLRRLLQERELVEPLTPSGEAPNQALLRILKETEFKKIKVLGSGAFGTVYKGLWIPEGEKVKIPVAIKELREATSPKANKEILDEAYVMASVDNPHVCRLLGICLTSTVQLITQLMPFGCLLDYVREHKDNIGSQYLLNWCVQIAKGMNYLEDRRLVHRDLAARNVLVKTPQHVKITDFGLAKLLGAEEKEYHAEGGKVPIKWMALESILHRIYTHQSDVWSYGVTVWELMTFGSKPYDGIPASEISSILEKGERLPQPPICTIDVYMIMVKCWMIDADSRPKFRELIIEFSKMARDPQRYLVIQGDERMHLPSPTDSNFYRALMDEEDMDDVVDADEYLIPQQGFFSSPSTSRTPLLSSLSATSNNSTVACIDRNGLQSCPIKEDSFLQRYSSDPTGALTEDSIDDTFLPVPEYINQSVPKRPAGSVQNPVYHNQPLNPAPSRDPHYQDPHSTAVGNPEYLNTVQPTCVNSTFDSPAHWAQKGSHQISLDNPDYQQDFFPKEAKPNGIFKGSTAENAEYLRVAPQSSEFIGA
T1 sequence (P00533 25-1210 T790M/L858R): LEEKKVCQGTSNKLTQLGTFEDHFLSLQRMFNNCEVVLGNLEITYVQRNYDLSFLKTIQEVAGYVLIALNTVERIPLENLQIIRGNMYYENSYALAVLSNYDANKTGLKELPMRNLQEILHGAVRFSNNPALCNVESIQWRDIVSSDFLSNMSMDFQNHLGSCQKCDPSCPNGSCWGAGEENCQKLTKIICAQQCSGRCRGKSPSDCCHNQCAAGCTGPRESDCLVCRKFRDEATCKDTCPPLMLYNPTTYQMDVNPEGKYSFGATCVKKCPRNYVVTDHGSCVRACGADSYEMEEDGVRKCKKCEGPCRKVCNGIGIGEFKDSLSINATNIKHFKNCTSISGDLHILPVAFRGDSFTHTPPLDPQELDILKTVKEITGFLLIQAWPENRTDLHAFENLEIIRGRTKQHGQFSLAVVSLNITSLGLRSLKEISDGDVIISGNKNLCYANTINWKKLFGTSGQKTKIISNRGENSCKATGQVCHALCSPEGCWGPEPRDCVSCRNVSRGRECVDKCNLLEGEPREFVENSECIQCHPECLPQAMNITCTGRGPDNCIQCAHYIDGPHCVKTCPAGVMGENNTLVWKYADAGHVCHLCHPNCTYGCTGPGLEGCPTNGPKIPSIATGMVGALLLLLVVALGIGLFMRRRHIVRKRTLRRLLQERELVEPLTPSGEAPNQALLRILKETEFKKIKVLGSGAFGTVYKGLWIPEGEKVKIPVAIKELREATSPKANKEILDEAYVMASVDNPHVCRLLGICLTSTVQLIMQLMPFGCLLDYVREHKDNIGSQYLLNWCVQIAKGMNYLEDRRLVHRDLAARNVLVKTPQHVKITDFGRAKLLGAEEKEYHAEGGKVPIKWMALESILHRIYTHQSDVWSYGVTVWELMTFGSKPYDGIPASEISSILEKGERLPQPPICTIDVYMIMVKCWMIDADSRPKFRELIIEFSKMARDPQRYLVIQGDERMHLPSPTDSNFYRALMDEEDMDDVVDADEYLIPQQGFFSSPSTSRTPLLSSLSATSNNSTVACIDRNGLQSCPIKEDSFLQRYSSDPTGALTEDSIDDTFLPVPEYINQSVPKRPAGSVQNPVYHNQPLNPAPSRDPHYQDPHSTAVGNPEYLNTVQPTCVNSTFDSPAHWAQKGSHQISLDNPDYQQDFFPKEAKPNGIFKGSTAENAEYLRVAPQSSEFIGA

Regarding `COc1ccc(NC(=O)/C=C/CN(C)C)cc1Nc1ncc(Cl)c(Oc2ccc3ccccc3c2)n1` [CCB145260, (E)-N-((3-((5-chloro-4-((naphthalen-2-yl)oxy))pyrimidin-2-yl)amino)-4-methoxyphenyl)-4-(dimethylamino)-2-butenamide], the IC50 in experiment [1] is 293 nM; in experiment [2], over 10000 nM; in experiment [3], 297 nM; in experiment [4], 17800 nM; in experiment [5], 2040 nM.

On to `COc1ccc(NC(=O)/C=C/CN(C)C)cc1Nc1ncc(Cl)c(N(C)c2ccc3ccccc3c2)n1` [CCB145295, (E)-N-((3-((5-chloro-4-(N-methyl-(naphthalen-2-yl)amino))pyrimidin-2-yl)amino)-4-methoxyphenyl)-4-(dimethylamino)-2-butenamide], for which the IC50 in experiment [1] is 47.2 nM; in experiment [2] it was 93.9 nM; in experiment [3] it was over 1000 nM; in experiment [4], 1080 nM; in experiment [5], 1180 nM.

Regarding `CC(C)Oc1ccc(NC(=O)/C=C/CN(C)C)cc1Nc1ncc(Cl)c(Nc2ccc3ccccc3c2)n1` [CCB145384, (E)-N-((3-((5-chloro-4-((naphthalen-2-yl)amino))pyrimidin-2-yl)amino)-4-isopropoxyphenyl)-4-(dimethylamino)-2-butenamide], the IC50 amounted to 266 nM in experiment [1]; 2680 nM in experiment [2]; 272 nM in experiment [3]; 671 nM in experiment [4]; 1970 nM in experiment [5].

Consider `C=CC(=O)Nc1cc(Nc2ncc(Cl)c(Nc3ccc4ccccc4c3)n2)c(OC)cc1N1CCN(C)CC1` [CCB120115, N-((5-((5-chloro-4-((naphthalen-2-yl)amino))pyrimidin-2-yl)amino)-2-(4-methylpiperazine)-4-methoxyphenyl)acrylamide], for which the IC50 in experiment [1] amounted to 1.6 nM; in experiment [2], 40.3 nM; in experiment [3], 28.5 nM; in experiment [4], 2590 nM; in experiment [5], 16 nM. Moreover, in experiment [1] (summary of Table 1), the “kinase inhibitory activity (in words)” value is on record as “potent”.

Take `Cc1ccc(Nc2ncc(Br)c(Nc3ccc4ccccc4c3)n2)cc1NC(=O)/C=C/CN(C)C` [CCB145348, (E)-N-((5-((5-bromo-4-((naphthalen-2-yl)amino))pyrimidin-2-yl)amino)-2-methylphenyl)-4-(dimethylamino)-2-butenamide]: the IC50 came out at 42.5 nM in experiment [1]; 470 nM in experiment [2]; 157 nM in experiment [3]; 4660 nM in experiment [4]; 1100 nM in experiment [5].

Take `C=CC(=O)Nc1cc(Nc2ncc(Cl)c(Nc3ccc4ccccc4c3)n2)c(OC)cc1N1CC(N(C)C)C1` [CCB120138, N-((5-((5-chloro-4-((naphthalen-2-yl)amino))pyrimidin-2-yl)amino)-2-(3-dimethylaminoazetidin-1-yl)-4-methoxyphenyl)acrylamide]: the IC50 was determined as 0.6 nM in experiment [1]; 4.3 nM in experiment [2]; 426 nM in experiment [3]; 912 nM in experiment [4]; 164 nM in experiment [5].

For the compound `CN(C)C/C=C/C(=O)Nc1ccc(F)c(Nc2ncc(Cl)c(Nc3ccc4ccccc4c3)n2)c1` [CCB145329], the half-maximal inhibitory concentration (IC50) in experiment [1] came out at 55.7 nM; in experiment [2] it was 1400 nM; in experiment [3] it was 198 nM; in experiment [4], 20500 nM; in experiment [5], 1060 nM.

For the compound `Cc1cc(NC(=O)/C=C/CN(C)C)cc(Nc2ncc(Cl)c(Nc3ccc4ccccc4c3)n2)c1` [CCB145344, (E)-N-((3-((5-chloro-4-((naphthalen-2-yl)amino))pyrimidin-2-yl)amino)-5-methylphenyl)-4-(dimethylamino)-2-butenamide], the IC50 in experiment [1] was found to be 46.3 nM; in experiment [2] it was 613 nM; in experiment [3], 36 nM; in experiment [4] it was 775 nM; in experiment [5], 925 nM.

For the compound `C=CC(=O)Nc1cc(Nc2ncc(Cl)c(Nc3ccc4ccccc4c3)n2)c(OC)cc1N1CCOCC1` [CCB120117, N-((5-((5-chloro-4-((naphthalen-2-yl)amino))pyrimidin-2-yl)amino)-2-morpholinyl-4-methoxyphenyl)acrylamide], the concentration for half-maximal inhibition (IC50) in experiment [1] is 9.4 nM; in experiment [2], over 100 nM; in experiment [3] it was 18.7 nM; in experiment [4], over 10000 nM; in experiment [5], 272 nM.

Take `CCOc1ccc(NC(=O)/C=C/CN(C)C)cc1Nc1ncc(Cl)c(Nc2ccc3ccccc3c2)n1` [CCB145373, (E)-N-((3-((5-chloro-4-((naphthalen-2-yl)amino))pyrimidin-2-yl)amino)-4-ethoxyphenyl)-4-(dimethylamino)-2-butenamide]: the IC50 in experiment [1] was 25.6 nM; in experiment [2] it was 1460 nM; in experiment [3], 163 nM; in experiment [4] it was 6260 nM; in experiment [5], 1180 nM.

Regarding `COc1ccc(NC(=O)/C=C/CN(C)C)cc1Nc1ncc(C(F)(F)F)c(Nc2ccc3ccccc3c2)n1` [CCB145274, (E)-N-((3-((5-trifluoromethyl-4-((naphthalen-2-yl)amino))pyrimidin-2-yl)amino)-4-methoxyphenyl)-4-(dimethylamino)-2-butenamide], the IC50 in experiment [1] amounted to 31.3 nM; in experiment [2] it was 2070 nM; in experiment [3], 41 nM; in experiment [4] it was 1220 nM; in experiment [5], 682 nM.
